Molecules are shown by their SMILES.

A short description of the data set: gradient 5% acetonitrile 3 min, to 50% in 2 min, to 85% in 15 min, held 3 min, 100 µL/min. As to conditions: column: Zorbax Extend-C18 2.1 x 50 mm; eluents: water / acetonitrile, 0.1% formic acid. In a few lines: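 Data were gathered over 3 months by HPLC coupled to a quadrupole time-of-flight mass spectrometer, operated in positive and negative ionization mode. Mixtures of ~100 pure standards ran on a Zorbax Extend-C18 column (2.1 × 50 mm, 1.8 μm) at 100 μL/min, with water and acetonitrile each containing 0.1% formic acid and dead and dwell volumes of 40 μL and 900 μL. Retention time was read from adduct peaks picked by computer and checked manually.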
With `CCc1c(C(=O)O)nnn1-c1ccc2c(c1)CCC2`, the RP-LC retention time was determined as 796 s.

Consider `CCN(CC)CCNc1ncnc2c1cnn2-c1cccc(Cl)c1`, for which the RP-LC retention time was 684 s.

For `CC(NC(=O)C1CCN(S(=O)(=O)c2ccc(C#N)cc2)CC1)C(=O)N1CCCc2ccccc21` (stereo not given), the RP-LC retention time was 690 s. Compound `Cc1cccc(C(=O)Nc2cc(-c3ccsc3)no2)c1` had an RP-LC retention time of 992 s. In turn, `CCN(CCNC(=O)CCc1cc2cc(OC)ccc2[nH]c1=O)Cc1ccccc1` yielded an RP-LC retention time of 626 s.

In turn, `CC(C)NC(=O)C1CCCN(C(=O)Nc2ccc(NC(=O)Nc3ccc(F)cc3)cc2)C1` (stereo not given) had an RP-LC retention time of 714 s. Then `Cc1nnsc1C(=O)Nc1nnc(SCc2ccc(Cl)c(Cl)c2)s1`, with 1020 s; and `CCn1cnc(S(=O)(=O)N2CCCC(C(=O)NCCc3ccccc3)C2)c1` (stereo not given), with 702 s; and `O=C([C@@H]1C[C@H](F)CN1C(=O)Nc1ccc(C(F)(F)F)cc1)N1CCc2ccccc2C1`, with 857 s. `Cc1cccc(C)c1NC(=O)CSc1cc(N2CCN(c3ccccc3F)CC2)ncn1`: the RP-LC retention time is 1100 s.

`CCc1cc(=O)n(CC(=O)Nc2ccc(N(C)C)cc2)c(N2CCOCC2)n1`: the RP-LC retention time is 587 s. Then `CCOC(=O)c1[nH]c(C)c(CCC(=O)N2CCC(C(=O)NCc3ccc(SC)cc3)CC2)c1C`, with 815 s; and `CCCNC(=O)C1CCN(c2nc3ccc(-c4cncnc4)nc3s2)CC1`, with 719 s; and `CCc1ccc(-c2noc(Cn3c(=O)n(Cc4ccc(OC)cc4)c(=O)c4sccc43)n2)cc1`, with 1190 s.

`Cc1ccc(CN2CCN(C3CCN(S(=O)(=O)c4cc(F)ccc4C)CC3)C(=O)C2=O)cc1` displayed an RP-LC retention time of 920 s. Next, `CCCN(CCC)C(=O)C1CCC(=O)N1S(=O)(=O)c1ccc(C)cc1` (stereo not given): 943 s; `COc1ccc(C)cc1NC(=O)CNC(=O)c1ccc(=O)[nH]c1`: 588 s. For the compound `Cc1ccccc1CNC(=O)C1CCCN(c2nnc(C)c3c(C)n(-c4ccccc4)nc23)C1` (stereo not given), the RP-LC retention time came out at 727 s. In turn, `CC1CCCN(C(=O)c2cc3c(s2)CCN(C(=O)c2ccccc2)C3)C1` (stereo not given) showed an RP-LC retention time of 589 s. Next, `CC1CCCCN1S(=O)(=O)c1ccc2nc(N3CCN(c4ccccc4F)CC3)ccc2c1` (stereo not given): 1180 s; `CCN(CC)CCNC(=O)c1ccc2cnn(Cc3ccc(F)cc3)c2c1`: 650 s. Take `COCCN1C(=O)[C@H]2CN(Cc3cccc(Cl)c3)C[C@H]2C1=O`: the RP-LC retention time was 633 s.

For the compound `CCc1ccc(-c2noc(CN3C(=O)COc4cc(Cl)ccc43)n2)cc1`, the RP-LC retention time worked out at 1240 s.

`CCc1ccc(NC(=O)Cn2c(N3CCCC3)nc(C)cc2=O)cc1` registered an RP-LC retention time of 699 s.

The compound `O=C(Cn1cccc(-c2nc(-c3ccc(Br)cc3)no2)c1=O)Nc1ccc(F)cc1F` gave an RP-LC retention time of 990 s. For `CCCc1nc(C(C)(C)O)c(C(=O)O)n1Cc1ccc(-c2ccccc2-c2nn[nH]n2)cc1`, the RP-LC retention time is 687 s.

The compound `CCOC(=O)C1CCN(C(=O)Cn2c(N3CCOCC3)nc(C)cc2=O)CC1` gave an RP-LC retention time of 620 s.

In the case of `CCOc1ccccc1CNC(=O)C1CCN(c2nc(CC)nc3csc(C)c23)CC1`, the RP-LC retention time was 1030 s. Then `CC1CC(C)CN(C(=O)C2CCCN(C(=O)c3cc4sccc4n3C)C2)C1` (stereo not given), with 963 s; and `Cc1noc(C)c1-c1ccc(S(=O)(=O)Nc2ccc3c(c2)OCCO3)cc1`, with 880 s. On to `Cc1[nH]nc(-c2ccc(S(=O)(=O)N3CCOCC3)o2)c1C`, for which the RP-LC retention time was determined as 707 s. As to `Cc1noc(C)c1CCC(=O)N1CCCC1CCc1ncc(C)n1CC1CC1` (stereo not given), the RP-LC retention time was determined as 662 s. Regarding `COc1ccccc1C1(CNC(=O)CSc2ccc(F)cc2)CCOCC1`, the RP-LC retention time came to 853 s. Next, `O=C(COc1ccccc1)Nc1cnc(N2CCCCC2)nc1`: 919 s. Next, `O=C(Cc1ccc(Cl)cc1)N1CCN(c2nnc3ccccn23)CC1`: 663 s. `CC(C)N1C(=O)c2cccnc2Sc2cc(NC(=O)Cc3ccsc3)ccc21` showed an RP-LC retention time of 823 s. On to `COC1C(=O)N(C2CCN(C(=O)c3sc(C)nc3C)CC2)C12CCOCC2` (stereo not given), for which the RP-LC retention time was determined as 589 s. In turn, `Cc1cc(NC(=O)C2CCCN(c3ccc(=O)n(-c4cccc(F)c4)n3)C2)ccc1Br` (stereo not given) came in with an RP-LC retention time of 1050 s. Take `Cc1ccc(C(=O)N2CC(c3nc(CCOCC4CC4)no3)C2)s1`: the RP-LC retention time was 806 s. Then `O=C(Cn1ccnc1)N1CCCCC1c1nncn1Cc1ccccc1` (stereo not given), with 579 s.

`COc1ccc(N2CC(c3noc(-c4cc(C)cc(C)c4)n3)CC2=O)cc1OC` (stereo not given) returned an RP-LC retention time of 1010 s.

`c1ccc(-n2nnc(-c3noc(-c4ccco4)n3)c2-c2ccncc2)cc1` displayed an RP-LC retention time of 787 s. The compound `O=C(CCn1nnc2cc(-c3noc(COc4ccccc4)n3)ccc21)N1CCOCC1` showed an RP-LC retention time of 826 s. Then `Cc1ccc(C(=O)N2CCN(c3nnc4ccc(Cl)cn34)CC2)cc1F`, with 760 s. The compound `COC(=O)c1cc(C2CC2)nc2c1c(=O)n(Cc1ccccc1Cl)c(=O)n2C` displayed an RP-LC retention time of 1130 s. Next, `CCOC(=O)c1[nH]c(C)c(CCC(=O)N2CCC(C(=O)NCc3ccc(OC)cc3OC)CC2)c1C`: 799 s; `NC(=O)C1CCN(C(=O)CCn2cnc3cc(S(=O)(=O)N4CCCC4)ccc32)CC1`: 577 s.

For the compound `Cn1nc(-c2nnc(-c3ccccc3F)o2)c2c1CCN(S(=O)(=O)c1ccccc1F)C2`, the RP-LC retention time worked out at 903 s. `Cc1ccc(-c2cc(C(=O)N3CCOCC3)nn2C2CCS(=O)(=O)C2)cc1C` (stereo not given) yielded an RP-LC retention time of 780 s. Compound `CNC(=O)c1sc2nc(-c3ccc(OC)cc3)c(NCCOC)n2c1C` came in with an RP-LC retention time of 656 s. With `CCOCC(=O)Nc1ccc(CC(=O)NCC(F)(F)F)cc1`, the RP-LC retention time was 644 s. Then `CC(C)c1nnc2n1CCN(C(=O)CCC1CCCC1)C2`, with 714 s; and `CC1CC(=O)N(Cc2c(F)cccc2Cl)c2ccccc2N1` (stereo not given), with 897 s; and `COC(=O)c1c(-c2ccc(Cl)cc2)noc1NCCCN1CCOCC1`, with 667 s. Then `COc1cccc(-c2nc(Cn3ccn4nc(-c5ccc(F)cc5)cc4c3=O)c(C)o2)c1OC`, with 1080 s.

In the case of `NCc1nnnn1-c1ccc(Cl)cc1`, the RP-LC retention time is 522 s. Next, `CCc1nc(-c2csc(S(=O)(=O)N3CCC(C(=O)Nc4ccc(C)cn4)CC3)c2)no1`: 799 s; `CC1CCCN(c2nn3c(C(=O)NCCc4c[nH]c5ccccc45)cc(=O)nc3s2)C1` (stereo not given): 838 s. Next, `Cc1ccc2oc(-c3noc(C(=O)NCCC4=CCCCC4)n3)c(C)c2c1`: 1400 s; `COc1ccc(C(=O)N2CCCCC2c2nncn2CC2CC2)cc1F` (stereo not given): 718 s; `Cc1cnc2n(c1=O)C(CC(=O)NCCc1ccc(S(N)(=O)=O)cc1)CS2` (stereo not given): 575 s.

On to `CCCS(=O)(=O)N1C[C@@H](COC)[C@H](c2ccncc2)C1`, for which the RP-LC retention time stood at 536 s. In turn, `COc1ccc(-c2nn3c(-c4ccc5ccccc5n4)nnc3s2)cc1OC` gave an RP-LC retention time of 886 s. `Cc1ccc2c(n1)nn1c(C)cc(C)nc21`: the RP-LC retention time came out at 557 s.

For the compound `C[C@@H](NC(=O)c1cccc(Cl)c1)C(=O)NCc1cscn1`, the RP-LC retention time turned out to be 652 s. Then `O=C(O)c1cnn2c(C(F)(F)F)cc(-c3ccc(F)cc3)nc12`, with 823 s; and `CC1(C)CC(NC(=O)COc2ccccc2Cl)CC(C)(C)N1`, with 618 s; and `C=CCn1c(=O)c2c(nc3n2CCN3c2ccc(OC)cc2)n(C)c1=O`, with 786 s. Next, `CN(C)C(=O)C1CN(C(=O)c2ccc(Br)cc2)CC12CCOCC2` (stereo not given): 631 s; `COCc1cc(=O)n(Cc2cccc(OC)c2)c(N2CCCC2)n1`: 764 s; `CCCN1CCc2cccc3c2[C@H]1Cc1ccc(O)c(O)c1-3`: 652 s. Then `Cc1ccc(-c2nc3cnccn3c2NCCC(=O)NC(C)c2ccccn2)cc1` (stereo not given), with 586 s; and `COc1ccccc1N1CCN(c2ncc(S(=O)(=O)c3ccccc3)c(N)n2)CC1`, with 903 s; and `COc1cccc(N2C=C(C(=O)N3CCCC3)S(=O)(=O)c3ccc(F)cc32)c1`, with 819 s.

Consider `COc1ccc(-c2cc(=O)n(CC(=O)Nc3nc4c(s3)CCCC4)cn2)cc1`, for which the RP-LC retention time stood at 762 s. Compound `CCc1ccc(CNC(=O)c2c(O)c3cccnc3[nH]c2=O)cc1` yielded an RP-LC retention time of 1040 s. `O=C(CCc1nnn2c1CN(C(=O)c1ccoc1)CC2)N1CCOCC1` registered an RP-LC retention time of 580 s.

The compound `COCCN1CCC(N2CCN(S(=O)(=O)c3ccc(F)cc3F)CC2)C1=O` (stereo not given) gave an RP-LC retention time of 570 s. On to `Cc1cccc(NC(=O)Cn2nc(N(C)C)c3ccccc3c2=O)c1C`, for which the RP-LC retention time was determined as 849 s.

`CC1(C(=O)NC2CCCC2)CN(S(=O)(=O)c2ccccc2)CC(=O)N1c1ccc(Cl)cc1` (stereo not given) came in with an RP-LC retention time of 950 s.

Source of the values: the METLIN SMRT retention time set (Domingo-Almenara et al. 2019).
